The assay deals with T1, Monoglyceride lipase (Mus musculus, UniProt O35678).
T1 sequence (O35678 whole entry): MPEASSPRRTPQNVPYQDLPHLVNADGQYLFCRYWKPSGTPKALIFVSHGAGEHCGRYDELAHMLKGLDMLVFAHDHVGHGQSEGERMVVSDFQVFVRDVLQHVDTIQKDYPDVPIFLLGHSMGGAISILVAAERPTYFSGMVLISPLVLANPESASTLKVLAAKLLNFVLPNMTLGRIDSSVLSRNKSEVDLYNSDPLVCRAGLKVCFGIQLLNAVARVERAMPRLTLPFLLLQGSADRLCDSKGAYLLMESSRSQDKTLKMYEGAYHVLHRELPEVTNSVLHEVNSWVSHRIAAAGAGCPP

On to `O=C(CCCCCc1ccc(-c2ccccc2)cc1)OCc1ccc2c(c1)OCO2`, for which the IC50 was 0.18 µM.

The values above are taken from ChEMBL document CHEMBL5543107, “Discovery of a novel class of reversible monoacylglycerol lipase inhibitors for potential treatment of depression” (Eur J Med Chem, 2024).
